Assay results: patent US11793824B2, “Administration of nicotinamide mononucleotide in the treatment of disease” (Washington University, priority 2013, dated 2023)
Entries after “also recorded” stand apart in the source; their conditions may differ.

What was measured:
661W cone cells = test: 661W cone cells: oxygen consumption rate measurement assay; type: cell-based, mouse
Description: There was an abundance of degenerative vacuoles with ingested organelles including mitochondria in rod-CKO mice with no such structures identified in littermate wild type controls. At 3 weeks of age, subtle changes in inner segments could be identified in rod-CKO mice although they were not as dramatic as those seen by 4 weeks (FIG. 35). […] The inventors treated 661W cone cells with NAMPT inhibitor FK866 (200 nM). In the oxygen consumption rate measurement assay, multiple aspects of mitochondrial function were analyzed.

661W cone PR cell line = test: 661W cone PR cell line: cell death and intracellular NAD under FK866 with or without NMN; type: cell-based, mouse
Text: The present inventors assessed the physiological importance of NAMPT-mediated NAD biosynthesis in the retina by generating rod cell- and cone cell-specific NAMPT knockout mice. […] Both a and b wave ERG responses were completely depressed as characterized by a total lack of response to all stimuli. […] NMN administration is an effective intervention to treat/prevent retinal degeneration.
The inventors used a 661W cone PR cell line and treated the cells with the specific pharmacological NAMPT inhibitor FK866 (200 nM). […] Cell death progresses dramatically over the next 20 hours.

Nampt = biological target: T1, Nampt (Mus musculus, UniProt Q99KQ4); test: NAD+ levels in neurospheres treated with FK866 with or without NMN; type: cell-based
T1 construct: endogenous in cells; host or cells: primary neurospheres (NSPCs) from hippocampi of postnatal mice
Description: NAD+ levels were determined using an HPLC system (Shimadzu) with a Supelco LC-18-T column (15 cm×4.6 cm; Sigma), as described previously (Yoshino et al, 2011).
FK866 (Hasmann & Schemainda, 2003) (Sigma F8557), EX527 (Peck et al, 2010) (Cayman Chemical 10009798), and AGK2 (Outeiro et al, 2007) (Sigma A8231) were dissolved in DMSO and used to inhibit Nampt, Sirt1, and Sirt2 respectively.
Neurosphere cultures and culture media were prepared as described by Dasgupta & Gutmann, 2005 and Lu & Ramanan, 2012 with the following minor modifications. Briefly, postnatal hippocampi were dissected in HibernateA (Invitrogen, A12475-01) and trypsinized at 37° C. for 7 m. Cells were mechanically dissociated by pipetting and pelleted by centrifugation (1700 rpm, 7 min). Dissociation medium (0.1% sodium bicarbonate, 15 mM HEPES, 0.5% glucose in HBSS) was used to wash the cells before they were resuspended in growth medium. Growth medium consisted of DMEM:F12 (1:1, Invitrogen 11966-025 and 21700-075, respectively), B27 (Invitrogen, 17504-044), N2 (Invitrogen, 17502-048), Pen/Strep (Invitrogen), epidermal growth factor (EGF, 20 ng/ml, Sigma, E4127), fibroblast growth factor (FGF, 10 ng/mL, R&D Systems, 233-fb), and heparin (Sigma). Cultures were maintained at 37° C. with 5% CO2, and passaged twice before use in experiments. […]

NAMPT cone-CKO mice = test: ERG rescue in NAMPT cone-CKO mice; type: in vivo, mouse; settings: NMN i.p.
Text: The inventors examined the effect of selectively disrupting NAD biosynthesis within PR. The inventors utilized the cre-lox strategy to generate mice that had NAMPT conditionally deleted from either rods (NAMPT rod-CKO) or cones (NAMPT cone-CKO). The NAMPT fl/fl mice as well as the rhodopsin-cre and cone opsin-cre mice have been previously characterized. Both rod and cone cko mice are generated with normal Mendelian frequencies and are born normal with no observable systemic abnormalities (data not shown). All structural and functional analyses performed in CKO mice are analyzed in comparison to littermate controls. Rods constitute a majority of the PR neurons (97% of all photoreceptors). […] Neurosensory retinal degeneration was associated with secondary atrophy and pallor of the optic nerve (FIG. 29C).
These quantifiable structural and functional changes were associated with decrease in visual acuity in cone-CKO mice (FIG. 30E). Histopathologic analyses confirmed outer nuclear layer degeneration with subsequent multilayer retinal degeneration and cell death in cone-CKO mice similar to the changes seen above for rod-CKO mice. […] NMN treatment had no effect on littermate controls (FIG. 33A-B). […] Furthermore, providing NMN treatment is able to rescue PR neurons and vision.

[1] = Insulin tolerance test in old mice; type: in vivo, mouse; settings: 100 and 300 mg/kg groups, body weight-matched, 12-month time point, 17 month-old mice
Description: A 12 month-long NMN administration study using wild-type mice under a regular chow-fed condition was conducted. NMN was administered through drinking water, and two doses of NMN, 100 and 300 mg/kg body weight/day, were tested. […] To assess beneficial and possible adverse effects of NMN, a variety of physiological parameters were periodically monitored, including body weight, body temperature, food and water intake, fed and fasted blood glucose levels, fed and fasted plasma lipid panels, and glucose and insulin tolerance, in NMN-administered and control mice. Blood chemistry, blood cell counts, urine strip test, and other physiological tests including physical activity test were also checked.
(See Methods; Administration of NMN through Drinking Water and Determination of NMN Stability and Toxicity). As illustrated in FIG. 9A-B, insulin tolerance results from body weight-matched mice in the control and the 100 and 300 mg/kg NMN-administered groups at the 12-month time point are presented. Blood glucose levels (FIG. 9A) and percent glucose changes (FIG. 9B) after insulin injection are shown. The results were analyzed with two-way RANOVA and one-way ANOVA. All values are presented as mean±SEM (n=10-15 for each group).

[2] = Contextual and cued fear conditioning tests in HFD-fed mice; type: in vivo, mouse
Description: Two groups of wild-type C57BL/6 mice at […] of age were fed a high fat diet (HFD) containing 42% of the total calories from fat (TD88137; Harlan Taklad). NMN at a dose of 300 mg/kg/day began to be administered through drinking water to one of the HFD-fed groups after 4 months of HFD feeding. The control group was fed a regular chow. After 8 months of HFD feeding with or without 4 months of NMN treatment, the contextual fear conditioning test, a sensitive test to examine the memory function that involves the hippocampus, was conducted for mice in these three groups.
FIG. 10 illustrates freezing responses of regular chow-fed control, HFD-fed, and HFD-fed, NMN-treated mice in contextual and cued fear conditioning tests on Day 1, Day 2 and Day3. NMN was administered at the dose of 300 mg/kg/day for 4 months. On Day 1 of the study, mice were given an auditory cue and then a mild electric foot shock, and a time of freezing was analyzed individually. On Day 2, the trained mice were placed into a training chamber with no tone cues, and their freezing responses were evaluated. […] The results were analyzed by one-way ANOVA with unweighted quadratic term. All values are presented as mean±SEM (n=17, 15, and 12 for regular chow-fed control, HFD-fed, and HFD-fed, NMN-treated mice, respectively). **P<0.01; *P<0.05.

T1 sequence (Q99KQ4 whole entry): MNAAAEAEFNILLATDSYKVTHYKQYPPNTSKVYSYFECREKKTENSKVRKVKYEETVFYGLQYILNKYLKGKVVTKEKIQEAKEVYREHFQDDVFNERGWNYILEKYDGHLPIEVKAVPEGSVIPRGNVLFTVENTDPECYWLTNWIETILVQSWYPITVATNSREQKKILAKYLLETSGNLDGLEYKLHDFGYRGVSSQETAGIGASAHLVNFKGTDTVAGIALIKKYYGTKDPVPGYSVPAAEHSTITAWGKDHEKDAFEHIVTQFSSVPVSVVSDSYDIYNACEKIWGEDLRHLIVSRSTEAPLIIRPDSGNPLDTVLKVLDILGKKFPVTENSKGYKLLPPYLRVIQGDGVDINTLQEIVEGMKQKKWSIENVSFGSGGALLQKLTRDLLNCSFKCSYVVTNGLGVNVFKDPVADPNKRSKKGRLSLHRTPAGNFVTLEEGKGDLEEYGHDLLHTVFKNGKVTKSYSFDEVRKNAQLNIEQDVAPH

O=C(/C=C/c1cccnc1)NCCCCC1CCN(C(=O)c2ccccc2)CC1 [FK866]
maximal respiration (661W cone cells; FK866 200 nM): significantly reduced
intracellular NAD levels (661W cone PR cell line; FK866 200 nM): decrease in intracellular NAD levels
cell death of 661W cells (661W cone PR cell line; FK866 200 nM, after 4 hours of treatment): significant cell death; also recorded: apoptotic cell death
NAD+ levels in neurospheres (Nampt; FK866 10 nM, 48 hours): 4 % of controls

NC(=O)c1ccc[n+]([C@@H]2O[C@H](COP(=O)([O-])O)[C@@H](O)[C@H]2O)c1 [NMN, nicotinamide mononucleotide]
effects of FK866 on mitochondrial function (661W cone cells; NMN treatment with FK866): completely reverse
effect on littermate controls (NAMPT cone-CKO mice): no effect
ERG function (NAMPT cone-CKO mice; vs PBS treated cone-CKO mice): improve ERG function
NAD levels under FK866 (661W cone PR cell line; NMN 100 μM with FK866): restore NAD to normal levels
rescue from FK866-mediated cell death (661W cone PR cell line; NMN 100 μM with FK866): completely rescue; also recorded: successfully rescued
insulin sensitivity (insulin tolerance test) [1]: significantly enhanced insulin sensitivity
rescue of FK866-induced decrease of NAD+ levels (Nampt; concurrent NMN 100 μM with FK866 10 nM): completely rescued
freezing responses, conditioning session and cued fear conditioning ([2]; Day 1 and Day 3, NMN 300 mg/kg/day for 4 months): did not differ from those of control mice
freezing responses, contextual fear conditioning test ([2]; Day 2, NMN 300 mg/kg/day for 4 months): indistinguishable from those of regular chow-fed control mice
